Measured values from US10472612B2, “Cell culture system” (PRESIDENT AND FELLOWS OF HARVARD COLLEGE, priority 2011, dated 2019).

Legend:
Caco-2 cell monolayer [1] = assay: LGG co-culture on Caco-2 monolayer in static Transwell; assay type: cell-based, human; details: first day of co-culture, not measurable after 48 hours
Experimental: Epithelial Barrier Measurements. The integrity of the human intestinal epithelial cell monolayer resulting from establishment of apical tight junctions was evaluated by staining for the tight junctional protein, occluidin,^29 using confocal immunofluorescence microscopy and by measuring trans-epithelial electrical resistance (TEER). In Transwell cultures, TEER was measured using a Millicell ERS meter (Millipore, Bedford, Mass.) coupled to a chopstick-like electrode, and TEER values (Ω cm^2) were determined by subtracting the baseline resistance value measured in the absence of cells and then multiplying the remaining ‘specific’ resistance value (Ω) times the cell culture surface area (cm^2). The TEER of the Caco-2 monolayer cultured in the Gut-on-a-Chip was measured using a voltage-ohm meter (87V Industrial Multimeter, Fluke Corporation, Everett, Wash.) coupled to Ag/AgCl electrode wires (0.008″ in diameter; A-M systems, Inc., Sequim, Wash.); control studies confirmed that similar TEER results were obtained with both methods. Again, the baseline resistance value measured in the absence of cells was subtracted from results obtained with the Caco-2 monolayer, and specific TEER values were determined by multiplying the specific resistance times the total cell culture surface area on the PDMS membrane (Table 1).
Microbial Studies. […]

Caco-2 cell monolayer [2] = assay type: cell-based; details: flow 40 μL/hr, cyclic strain 10%, 0.15 Hz
Experimental: Epithelial Barrier Measurements. The integrity of the human intestinal epithelial cell monolayer resulting from establishment of apical tight junctions was evaluated by staining for the tight junctional protein, occluidin,^29 using confocal immunofluorescence microscopy and by measuring trans-epithelial electrical resistance (TEER). In Transwell cultures, TEER was measured using a Millicell ERS meter (Millipore, Bedford, Mass.) coupled to a chopstick-like electrode, and TEER values (Ω cm^2) were determined by subtracting the baseline resistance value measured in the absence of cells and then multiplying the remaining ‘specific’ resistance value (Ω) times the cell culture surface area (cm^2). […] Again, the baseline resistance value measured in the absence of cells was subtracted from results obtained with the Caco-2 monolayer, and specific TEER values were determined by multiplying the specific resistance times the total cell culture surface area on the PDMS membrane (Table 1).

[3] = system: Caco-2 cell monolayer alone or with HMVE cell monolayer; assay: Molecular permeability through cell monolayer in gut-on-a-chip with or without mechanical strain (Example 1); assay type: in vitro ADME, human; details: Caco-2 monolayer alone or with HMVE monolayer; cyclic stretching 0.15 Hz, 30 μL/h
Experimental: In a fluidic condition (N=4), constant perfusion flow of 30 μL/h was conducted without any stretching motions (i.e. shear stresses only). […] In a static condition (N=4), transport experiment was performed in a Transwell system. Error bars indicate standard errors.
In a fluidic condition (N=2), constant perfusion flow at 30 μL/h was conducted without any stretching motions (i.e. shear stresses only). […] In a static condition (N=4), transport experiments were performed in the Transwell system. Error bars indicate standard errors.
In a fluidic condition (N=5), constant perfusion flow of 30 μL/h was conducted without any stretching motions (i.e. shear stresses only). […] In a static condition (N=3), transport experiment was performed in a Transwell system. Error bars indicate standard errors.
After the cell monolayers were fully confluent and stabilized under defined fluidic conditions, transport experiments were conducted. […] The co-cultured monolayers of Caco-2 and HMVE cells experienced with cyclic deformations for 12 hours or more prior to initiating the transport or barrier functional analysis experiments. […] Electrical resistances between the top and the bottom microchannels were monitored using an Ag/AgCl electrode equipped with an Ohm meter, and the resistance was converted into TEER value by multiplying values by the surface area of the cell monolayer. […]

Row | Substance | TEER during co-culture (Caco-2 cell monolayer [1]) | barrier integrity (TEER) during co-culture (Caco-2 cell monolayer [2]) | effect of mechanical strain on paracellular transport [3]
1 | Lactobacillus rhamnosus GG [LGG] | dissipated | improved | –
2 | Lucifer yellow | – | – | increased
